Entries after “also recorded” stand apart in the source; their conditions may differ. Where no end group is shown, it is not given here. Side-chain parts run from the residue outwards. EMCS = N-(6-maleimidocaproyloxy)succinimide crosslinker
How the values were obtained:
[1] = test system: tumor-bearing mice seeded in the thigh with murine bladder cancer cell strain MBT2; test: Neutron irradiation test (tumor volume, hot group vs cold group); type: in vivo; conditions: 7 mg/kg tail vein, neutron irradiation 40 minutes after administration; for effect of reducing the tumor volume, hot group versus cold group: tumor volumes (mm^3) measured for 21 days, FIGS. 5, 6
Protocol: IF7-^10BPA was administered to the tail vein of tumor-bearing mice seeded in the thigh with murine bladder cancer cell strain MBT2 at a dosage amount of 7 mg/kg. Thereafter, tumor volumes (mm^3) thereof were measured for 21 days, with respect to a group (hot group), which was irradiated 40 minutes after the tail-vein administration with neutrons for 30 minutes under the following conditions and a group (cold group), which was not irradiated. In the drawing, * represents p<0.05.
(1) Neutron fluence (cm^−2·s^−1) 2.1E^+12 (2.1×10^12) to 4.6E^+12 (2) Physical dose (Gy) Thermal neutrons: 2.8E^−1 to 6.1E^−1 Epithermal neutrons: 3.0E^−2 to 6.5E^−2 Fast neutrons: 2.1E^−1 to 4.6E^−1 Gamma rays: 2.1E^−1 to 4.6E^−1 Total: 8.9E^−1 to 1.5E^0
Administration was performed in the same manner as in Example 5, except that IF7-^10BSH was administered instead of IF7-^10BPA. Thereafter, tumor volumes (mm^3) were measured for 21 days with respect to the hot group which was irradiated with neutrons 40 minutes after the administration and the cold group which was not irradiated.
IF7-^10BPA was administered to tail vein of the tumor-bearing mice seeded with murine bladder cancer cell strain MBT2 at a dosage amount of 7 mg/kg. Thereafter, tumor volumes (mm^3) were measured for 21 days with respect to a hot group which was irradiated with neutrons 40 minutes after the tail-vein administration and a cold group which was not irradiated.
The administration was performed in the same manner as in Example 7, except that 1BPA was administered instead of IF7-^10BPA, tumor volumes (mm^3) were measured for 21 days with respect to the hot group irradiated 40 minutes after the administration with neutrons and the cold group which was not irradiated.

[2] = test system: tumor-bearing mice seeded on the thigh with a murine bladder cancer cell MBT2; conditions: mouse, in vivo
Protocol: Tumor accumulation ability was tested in tumor-bearing mice (7 mm in tumor diameter) seeded on the thigh with a murine bladder cancer cell MBT2, with respect to IF7-^10BPA synthesized in Synthesis Example 1 above and IF7-^10BSH synthesized in Synthesis Example 2 above. 100 μL (175 μg) of IF7-^10BPA or IF7-^10BSH adjusted to 7 mg/kg was administered to the tail vein of the tumor-bearing mice. ^10B levels (ppm) in the organs of the tumor-bearing mice were measured 5, 10, and 20 minutes after the tail-vein administration by the PGA-method.
^10B levels in the respective organs of the tumor-bearing mice were measured in the same manner as in Example 1, except that the measurement was performed 40 minutes after the administration in addition to 5, 10 and 20 minutes, the number of n in the respective data was 3 or more, and the measurement results were indicated in violin plots.
^10B levels in the respective organs of the tumor-bearing mice were measured in the same manner as in Example 3, except that instead of IF7-^10BPA, [10B]boronophenylalanine (^10BPA) in the same concentration was administered. The results are indicated in violin plots in FIG. 3B.
^10B levels in the respective organs of the tumor-bearing mice were measured in the same manner as in Comparative Example 2, except that the concentration of ^10BPA was changed from 7 mg/kg to 100 mg/kg. […]

[3] = test system: tumor-bearing mice (murine bladder cancer cell MBT2); test: Tumor accumulation ability test, Comparative Example 1 (^10B levels in organs, ICP-AES method); type: in vivo; conditions: FIG. 2
Protocol: Additionally, as Comparative Example 1, a tumor accumulation ability test was similarly performed using R-D-fructopyranose, 2′ position of which is esterified with [10B]boronophenylalanine group represented by the formula (a) (hereinafter, simply referred to as “^10BPA-fructose”). 100 μL (2,000 μg) of ^10BPA-fructose whose dosage amount was increased to 100 mg/kg was administered to the tail vein of tumor-bearing mice. ^10B levels (ppm) in the respective organs of the tumor-bearing mice were measured 20, 40, and 60 minutes after the tail-vein administration by ICP-AES method. FIG. 2 is a drawing indicating ^10B levels (ppm) in the organs of the tumor-bearing mice at 20, 40, and 60 minutes after tail-vein administration of 100 μL (2,000 μg) of ^10BPA-fructose.

Substance | effect of reducing the tumor volume, hot group versus cold group [1] | ^10B level in the tumor compared with ^10BPA 100 mg/kg (Comparative Example 3) [2] | effect of reducing the tumor volume, hot group IF7-^10BPA (Example 7) versus hot group ^10BPA (Comparative Example 5) ([1]; 21 days, FIGS. 6A, 6B) | accumulation of ^10B in the tumor tissue ([3]; 100 mg/kg (100 μL, 2,000 μg) tail vein, 20, 40, and 60 minutes after the administration) | discrimination of the tumor tissue from the other organs (^10B levels) ([3]; 100 mg/kg tail vein, 20, 40, and 60 minutes)
IF7-^10BSH: peptide IFLLWQRKRR (SEQ ID NO: 3) crosslinked with EMCS between lysine amino group and thiol group of sodium [10B]borocaptate (IFLLWQRK([EMCS-sodium (10B)borocaptate])RR) | effect of reducing the tumor volume was pronounced | – | – | – | –
IF7-^10BPA: peptide IFLLWQRCRR (SEQ ID NO: 2) crosslinked with EMCS between cysteine thiol and terminal amino group of a ^10B boronophenylalanine compound (IFLLWQRC([EMCS-(10B)boronophenylalanine])RR) | effect of reducing the tumor volume was pronounced; also recorded: more pronounced in the hot group | not inferior | effect of reducing the tumor volume was greater | – | –
R-D-fructopyranose, 2′ position of which is esterified with [10B]boronophenylalanine group represented by the formula (a) [^10BPA-fructose] | – | – | – | did not accumulate at all in the tumor tissue | did not significantly discriminate the tumor tissue from the other organs

From patent publication US20210138274A1, “ACCUMULATIVE BORON 10 MEDICINE FOR BORON NEUTRON CAPTURE THERAPY FOR SELECTIVELY OR LOCALLY TARGETING TUMOR TISSUES IN SHORT TIME” (HIROSAKI UNIVERSITY, priority 2018, published 2021)
